According to ChEMBL document CHEMBL1201862, “PubChem BioAssay data set” (2004):
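Method: 48-hour compound exposure of cells in 96-well plates, five concentrations, linear interpolation of endpoints. GI50: concentration for 50% inhibition of growth.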 The source made the active and inactive calls. Cut-off read from the data, not from the text of the source: active = GI50 up to about 1.1 µM and inactive = higher.

Experiments:
Assay in all cases: growth of human tumour cells (NCI), 48 h
M14 = system: M14
RPMI-8226 = system: RPMI-8226
DMS-114 = system: DMS-114
UACC-62 = system: UACC-62
SW-620 = system: SW-620
SNB-75 = system: SNB-75
KM-20L2 = system: KM-20L2
A549 = system: A549
UO-31 = system: UO-31
786-0 = system: 786-0
HOP-92 = system: HOP-92
MOLT-4 = system: MOLT-4
OVCAR-4 = system: OVCAR-4
HCT-15 = system: HCT-15
SK-MEL-28 = system: SK-MEL-28
COLO 205 = system: COLO 205
A498 = system: A498
HOP-62 = system: HOP-62
EKVX = system: EKVX
NCI-H522 = system: NCI-H522
KM12 = system: KM12
HCT-116 = system: HCT-116
UACC-257 = system: UACC-257
NCI-H23 = system: NCI-H23
K562 = system: K562
CCRF-CEM = system: CCRF-CEM
DLD-1 = system: DLD-1
ACHN = system: ACHN
SF-268 = system: SF-268
M19-MEL = system: M19-MEL
LXFL 529 = system: LXFL 529
HCC 2998 = system: HCC 2998
SR = system: SR
SN12C = system: SN12C
SF-295 = system: SF-295
HL-60 = system: HL-60
XF498 = system: XF498
SK-MEL-2 = system: SK-MEL-2
OVCAR-5 = system: OVCAR-5
DMS-273 = system: DMS-273
SNB-19 = system: SNB-19
SNB-78 = system: SNB-78
HOP-18 = system: HOP-18
OVCAR-8 = system: OVCAR-8
NCI-H460 = system: NCI-H460
CAKI-1 = system: CAKI-1
SK-OV-3 = system: SK-OV-3
U-251 = system: U-251
HT-29 = system: HT-29
RXF 393 = system: RXF 393
SF-539 = system: SF-539
IGROV-1 = system: IGROV-1
Malme-3M = system: Malme-3M
TK-10 = system: TK-10
SK-MEL-5 = system: SK-MEL-5

With `CCC1=C(C(C)=O)[C@@H]2CCCCC[C@@H](C(=O)OC)C2C1=O` (stereo not given in full) the GI50 (M14) was > 100 µM (inactive), the GI50 (RPMI-8226) was > 100 µM (inactive) and the GI50 (DMS-114) was > 100 µM (inactive). For the same compound, the GI50 (UACC-62) was > 100 µM (inactive), the GI50 (SW-620) was > 100 µM (inactive) and the GI50 (SNB-75) was > 100 µM (inactive). For the same compound, the GI50 (KM-20L2) was > 100 µM (inactive), the GI50 (A549) was > 100 µM (inactive) and the GI50 (UO-31) was > 100 µM (inactive). The GI50 (786-0) was > 100 µM (inactive), the GI50 (HOP-92) was > 100 µM (inactive) and the GI50 (MOLT-4) was > 100 µM (inactive). The GI50 (OVCAR-4) was > 100 µM (inactive), the GI50 (HCT-15) was over 100 µM and the GI50 (SK-MEL-28) was > 100 µM (inactive). For the same compound, the GI50 (COLO 205) was > 100 µM (inactive), the GI50 (A498) was > 100 µM (inactive) and the GI50 (HOP-62) was > 100 µM (inactive). For the same compound, the GI50 (EKVX) was > 100 µM (inactive), the GI50 (NCI-H522) was > 100 µM (inactive) and the GI50 (KM12) was > 100 µM (inactive). The GI50 (HCT-116) was > 100 µM (inactive), the GI50 (UACC-257) was > 100 µM (inactive) and the GI50 (NCI-H23) was > 100 µM (inactive). For the same compound, the GI50 (K562) was > 100 µM (inactive), the GI50 (CCRF-CEM) was > 100 µM (inactive) and the GI50 (DLD-1) was > 100 µM (inactive). The GI50 (ACHN) was > 100 µM (inactive), the GI50 (SF-268) was > 100 µM (inactive) and the GI50 (M19-MEL) was > 100 µM (inactive). The GI50 (LXFL 529) was > 100 µM (inactive), the GI50 (HCC 2998) was > 100 µM (inactive) and the GI50 (SR) was > 100 µM (inactive). The GI50 (SN12C) was > 100 µM (inactive), the GI50 (SF-295) was > 100 µM (inactive) and the GI50 (HL-60) was > 100 µM (inactive). The GI50 (XF498) was > 100 µM (inactive), the GI50 (SK-MEL-2) was > 100 µM (inactive) and the GI50 (OVCAR-5) was > 100 µM (inactive). The GI50 (DMS-273) was > 100 µM (inactive), the GI50 (SNB-19) was > 100 µM (inactive) and the GI50 (SNB-78) was > 100 µM (inactive). The GI50 (HOP-18) was 57.9 µM (inactive), the GI50 (OVCAR-8) was > 100 µM (inactive) and the GI50 (NCI-H460) was > 100 µM (inactive). For the same compound, the GI50 (CAKI-1) was > 100 µM (inactive), the GI50 (SK-OV-3) was > 100 µM (inactive) and the GI50 (U-251) was > 100 µM (inactive). For the same compound, the GI50 (HT-29) was > 100 µM (inactive), the GI50 (RXF 393) was > 100 µM (inactive) and the GI50 (SF-539) was > 100 µM (inactive). The GI50 (IGROV-1) was > 100 µM (inactive), the GI50 (Malme-3M) was > 100 µM (inactive) and the GI50 (TK-10) was > 100 µM (inactive). For the same compound, the GI50 (SK-MEL-5) was > 100 µM (inactive).
